Results from US20190209501A1, “COMPOSITIONS AND METHODS OF USE OF BETA-HYDROXY-BETA-METHYLBUTYRATE (HMB) […] IN[…]” (Texas Tech University Office of Research Commercialization, priority 2018, published 2019).

Key:
[1] = Resting energy expenditure and substrate utilization (RQ) via indirect calorimetry; assay type: in vivo, human; details: for RMR Δ / RMR Δ (%) / RQ Δ / RQ Δ (%): baseline to W 8; for RMR ES (d) / RQ ES (d): effect size
Protocol: REE and substrate utilization were assessed via indirect calorimetry (TrueOne 2400. ParvoMedics, Sandy, Utah, USA). Gas and flow calibrations were performed each morning according to manufacturer specifications, and the pre-assessment procedures of Compher et al. (34) were utilized. Participants were instructed to remain motionless but awake during the assessment, which took place in a climate-controlled room with the lights dimmed. The first five minutes of each test were discarded, and the assessment continued until there was a period of 5 consecutive minutes with a coefficient of variation (CV) for REE of ≤5%. The average CV for REE in the present study was 3.2±1.1% (mean±SD).

[2] = Blood markers (lipids, glucose, insulin); assay type: in vivo, human; details: for Cholesterol Δ / Cholesterol Δ (%) / Glucose Δ / Glucose Δ (%) / HDL Δ / HDL Δ (%) / Insulin Δ / Insulin Δ (%) / LDL Δ / LDL Δ (%) / Triglycerides Δ / Triglycerides Δ (%) / VLDL Δ / VLDL Δ (%): baseline to W 8; for Cholesterol ES (d) / Glucose ES (d) / HDL ES (d) / Insulin ES (d) / LDL ES (d) / Triglycerides ES (d) / VLDL ES (d): effect size
Description: At baseline and after 4 and 8 weeks of the intervention, participants completed two testing sessions: (1) a morning assessment conducted after an overnight fast for assessment of body composition, metabolism, vascular measures and subjective factors: and (2) an afternoon assessment of muscular performance, conducted in the non-fasted state. For morning assessments, participants reported to the laboratory after abstention from eating, drinking, exercising and utilizing caffeine or nicotine for ≥8 hours. Participants were interviewed to confirm adherence to these pre-assessment restrictions. The actual abstention from exercise was ≥14 hours due to the scheduling of exercise sessions. Participants reported to the laboratory wearing athletic clothing, and all metal and accessories were removed from the body prior to testing. Each participant voided her bladder and provided a urine sample. Urine samples were assessed for urine specific gravity (USG) using a digital refractometer (PA201X-093. Misco, Solon, Ohio. USA). Additionally, a standard urinary HCG test was performed to confirm that each participant was not pregnant. Finally, urinary samples were frozen at −80° C. for assessment of urinary HMB content after study unblinding. After voiding, each participant's body mass (BM) and height were determined via digital scale with stadiometer (Seca 769, Hamburg, Germany). Blood draws were performed at Texas Tech University Student Health Services after an overnight fast, and participants completed at-home saliva collections for assessment of the cortisol awakening response (CAR).
Blood samples collected by certified health professionals were transported via courier to a local clinical laboratory for analysis (University Medical Center Health System, Lubbock, Tex., USA). Testing was performed using standard instrumentation (Cobas 6000, Roche Diagnostics, Risch-Rotkreuz. Switzerland). Total cholesterol, triglycerides and HDL cholesterol were assessed using enzymatic colorimetric assays, and VLDL and non-HDL cholesterol were calculated. LDL cholesterol was calculated using the Martin-Hopkins equation (35). Glucose was measured using an enzymatic UV test, and insulin was assessed via electrochemiluminescence immunoassay. Results of the clinical laboratory analyses were provided to study investigators.

[3] = approximate; cited from earlier work

Work on `CC(C)(O)CC(=O)O` [TRFHMB, β-hydroxy-β-methylbutyrate] yielded an RMR ([1]; ITT, Baseline) of 1466 ± 48 kcal/day, an RQ ([1]; ITT, Baseline) of 0.82 ± 0.02 au and an RMR ([1]; ITT, W 8) of 1481 ± 44 kcal/day. The “RMR Δ” value ([1]; ITT) was 15 kcal/day, the “RMR Δ (%)” value ([1]; ITT) was 1% and the “RQ Δ” value ([1]; ITT) was −0.03 au. The “RQ Δ (%)” value ([1]; ITT) was −4%, the “RMR ES (d)” value ([1]; ITT) was 0.09 and the “RQ ES (d)” value ([1]; ITT) was −0.42. The RMR ([1]; PP, Baseline) was 1472 ± 61 kcal/day, the RQ ([1]; PP, Baseline) was 0.81 ± 0.03 au and the RMR ([1]; PP, W 8) was 1519 ± 57 kcal/day. For the same compound, the RQ ([1]; PP, W 8) was 0.78 ± 0.02 au, the “RMR Δ” value ([1]; PP) was 47 kcal/day and the “RMR Δ (%)” value ([1]; PP) was 3%. For the same compound, the “RQ Δ” value ([1]; PP) was −0.03 au, the “RQ Δ (%)” value ([1]; PP) was −4% and the “RMR ES (d)” value ([1]; PP) was 0.30. For the same compound, the “RQ ES (d)” value ([1]; PP) was −0.44, the “Resting metabolic rate change” value ([1]; versus baseline) was “+47 kcal/d” and the “Resting metabolic rate change (%)” value ([1]; versus baseline) was 3%. For the same compound, the Cholesterol ([2]; ITT, Baseline) was 178 ± 9 mg/dL, the Glucose ([2]; ITT, Baseline) was 90 ± 3 mg/dL and the HDL ([2]; ITT, Baseline) was 75 ± 4 mg/dL. It also gave an Insulin ([2]; ITT, Baseline) of 10 ± 2 mcU/mL, an LDL ([2]; ITT, Baseline) of 85 ± 7 mg/dL and a Triglycerides ([2]; ITT, Baseline) of 95 ± 10 mg/dL. The VLDL ([2]; ITT, Baseline) was 19 ± 2 mg/dL, the Cholesterol ([2]; ITT, W 8) was 183 ± 11 mg/dL and the Glucose ([2]; ITT, W 8) was 89 ± 3 mg/dL. For the same compound, the HDL ([2]; ITT, W 8) was 68 ± 5 mg/dL, the Insulin ([2]; ITT, W 8) was 13 ± 3 mcU/mL and the LDL ([2]; ITT, W 8) was 97 ± 7 mg/dL. The Triglycerides ([2]; ITT, W 8) was 85 ± 12 mg/dL, the VLDL ([2]; ITT, W 8) was 17 ± 2 mg/dL and the “Cholesterol Δ” value ([2]; ITT) was 5 mg/dL. For the same compound, the “Cholesterol Δ (%)” value ([2]; ITT) was 3%, the “Glucose Δ” value ([2]; ITT) was -1 mg/dL and the “Glucose Δ (%)” value ([2]; ITT) was −1%. For the same compound, the “HDL Δ” value ([2]; ITT) was -7 mg/dL, the “HDL Δ (%)” value ([2]; ITT) was −9% and the “Insulin Δ” value ([2]; ITT) was 3 mcU/mL. For the same compound, the “Insulin Δ (%)” value ([2]; ITT) was 30%, the “LDL Δ” value ([2]; ITT) was 12 mg/dL and the “LDL Δ (%)” value ([2]; ITT) was 14%. The “Triglycerides Δ” value ([2]; ITT) was -10 mg/dL, the “Triglycerides Δ (%)” value ([2]; ITT) was −11% and the “VLDL Δ” value ([2]; ITT) was -2 mg/dL. The “VLDL Δ (%)” value ([2]; ITT) was −11%, the “Cholesterol ES (d)” value ([2]; ITT) was 0.14 and the “Glucose ES (d)” value ([2]; ITT) was −0.09. For the same compound, the “HDL ES (d)” value ([2]; ITT) was −0.43, the “Insulin ES (d)” value ([2]; ITT) was 0.27 and the “LDL ES (d)” value ([2]; ITT) was 0.48. For the same compound, the “Triglycerides ES (d)” value ([2]; ITT) was −0.25, the “VLDL ES (d)” value ([2]; ITT) was −0.28 and the Cholesterol ([2]; PP, Baseline) was 168 ± 13 mg/dL. It also gave a Glucose ([2]; PP, Baseline) of 92 ± 4 mg/dL, an HDL ([2]; PP, Baseline) of 72 ± 5 mg/dL and an Insulin ([2]; PP, Baseline) of 9 ± 3 mcU/mL. It also gave an LDL ([2]; PP, Baseline) of 78 ± 9 mg/dL, a Triglycerides ([2]; PP, Baseline) of 91 ± 14 mg/dL and a VLDL ([2]; PP, Baseline) of 18 ± 3 mg/dL. The Cholesterol ([2]; PP, W 8) was 183 ± 15 mg/dL, the Glucose ([2]; PP, W 8) was 90 ± 4 mg/dL and the HDL ([2]; PP, W 8) was 70 ± 6 mg/dL. The Insulin ([2]; PP, W 8) was 10 ± 3 mcU/mL, the LDL ([2]; PP, W 8) was 96 ± 9 mg/dL and the Triglycerides ([2]; PP, W 8) was 80 ± 17 mg/dL. The VLDL ([2]; PP, W 8) was 16 ± 3 mg/dL, the “Cholesterol Δ” value ([2]; PP) was 15 mg/dL and the “Cholesterol Δ (%)” value ([2]; PP) was 9%. For the same compound, the “Glucose Δ” value ([2]; PP) was -2 mg/dL, the “Glucose Δ (%)” value ([2]; PP) was −2% and the “HDL Δ” value ([2]; PP) was -2 mg/dL. For the same compound, the “HDL Δ (%)” value ([2]; PP) was −3%, the “Insulin Δ” value ([2]; PP) was 1 mcU/mL and the “Insulin Δ (%)” value ([2]; PP) was 11%. For the same compound, the “LDL Δ” value ([2]; PP) was 18 mg/dL, the “LDL Δ (%)” value ([2]; PP) was 23% and the “Triglycerides Δ” value ([2]; PP) was -11 mg/dL. For the same compound, the “Triglycerides Δ (%)” value ([2]; PP) was −12%, the “VLDL Δ” value ([2]; PP) was -2 mg/dL and the “VLDL Δ (%)” value ([2]; PP) was −11%. The “Cholesterol ES (d)” value ([2]; PP) was 0.40, the “Glucose ES (d)” value ([2]; PP) was −0.19 and the “HDL ES (d)” value ([2]; PP) was −0.14. For the same compound, the “Insulin ES (d)” value ([2]; PP) was 0.55, the “LDL ES (d)” value ([2]; PP) was 0.76 and the “Triglycerides ES (d)” value ([2]; PP) was −0.27. The “VLDL ES (d)” value ([2]; PP) was −0.30 and the “Loss of HMB to urine after HMB is fed” value [3] was 20-50%.
